Among the data in patent US11306078B2, “Piperidine CXCR7 receptor modulators” (IDORSIA PHARMACEUTICALS LTD., priority 2016, dated 2022) are IC50 values, retold here.

What is called IC50 is the concentration that gives 50% inhibition. Read a high IC50 as weaker potency in that assay.

SMILES strings stand for the structures.

This experiment has as its target human chemokine receptor CXCR7 (Homo sapiens (Human), UniProt P25106). Description: Tango CXCR7-bla U2OS beta-arrestin recruitment assay (beta-lactamase reporter, FRET), antagonism of CXCL12/SDF1-α.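 Further: compounds preincubated 15 min before CXCL12 addition, then 22 h at 37 °C, FRET emission ratio read with CCF4-AM substrate after 2 h.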 To be noted: antagonistic effect on CXCR7; Tango CXCR7-bla U2OS cells, CXCL12/SDF1-α at its EC80. Type of experiment: cell-based. For orientation: Activated receptors often draw arrestin, which recruitment assays turn into a signal.

Chain of human chemokine receptor CXCR7 (P25106 whole entry): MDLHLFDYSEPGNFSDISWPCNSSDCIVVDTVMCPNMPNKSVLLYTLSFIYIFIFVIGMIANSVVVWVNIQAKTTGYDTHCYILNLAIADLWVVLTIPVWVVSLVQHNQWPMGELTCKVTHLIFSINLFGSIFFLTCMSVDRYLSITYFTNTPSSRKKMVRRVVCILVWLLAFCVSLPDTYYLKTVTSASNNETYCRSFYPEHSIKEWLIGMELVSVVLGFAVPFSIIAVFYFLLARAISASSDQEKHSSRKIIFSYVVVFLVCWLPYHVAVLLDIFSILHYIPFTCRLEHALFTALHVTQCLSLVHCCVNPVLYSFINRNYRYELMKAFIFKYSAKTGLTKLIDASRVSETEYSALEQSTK

With `CC(C)(NC(=O)[C@H]1CN(CC2CC2)CC[C@@H]1NC(=O)c1cc(-c2ccc(F)cc2F)on1)c1ccccn1` [Example 4.033], the IC50 stood at 0.3 nM.
The compound `Cn1cc(C(C)(C)NC(=O)[C@H]2CN(C3CCCC3)CC[C@@H]2NC(=O)c2cc(-c3ccc(F)cc3F)on2)cn1` [Example 4.034] registered an IC50 of 255 nM.
Compound `Cc1nc(C(C)(C)NC(=O)[C@H]2CN(C3CCCC3)CC[C@@H]2NC(=O)c2cc(-c3ccc(F)cc3F)on2)no1` [Example 4.035] returned an IC50 of 56 nM.
Compound `O=C(N[C@H]1CCN(C2CCCC2)C[C@@H]1C(=O)NC1(C2CC2)CC1)c1cc(-c2ccc(F)cc2F)on1` [Example 4.036] showed an IC50 of 127 nM.
In turn, `CC(NC(=O)[C@H]1CN(C2CCCC2)CC[C@@H]1NC(=O)c1cc(-c2ccc(F)cc2F)on1)C1CCCO1` (stereo partly shown) [Example 4.037] had an IC50 of 280 nM.
Consider `CC(NC(=O)[C@H]1CN(C2CCCC2)CC[C@@H]1NC(=O)c1cc(-c2ccc(F)cc2F)on1)c1nc[nH]n1` (stereo partly shown) [Example 4.038], for which 522 nM corresponded to half-maximal inhibition (IC50).
Compound `C#CC(C)NC(=O)[C@H]1CN(C2CCCC2)CC[C@@H]1NC(=O)c1cc(-c2ccc(F)cc2F)on1` (stereo partly shown) [Example 4.039] gave a half-inhibitory concentration (IC50) of 393 nM.
Take `CC(NC(=O)[C@H]1CN(C2CCCC2)CC[C@@H]1NC(=O)c1cc(-c2ccc(F)cc2F)on1)c1ccn[nH]1` (stereo partly shown) [Example 4.041]: the midpoint of inhibition, the IC50, lay at 96 nM.
As to `C[C@@H](NC(=O)[C@H]1CN(C2CCCC2)CC[C@@H]1NC(=O)c1cc(-c2ccc(F)cc2F)on1)c1cccnc1` [Example 4.042], the IC50 came out at 74 nM.
Compound `Cn1cc(C(C)(C)NC(=O)[C@H]2CN(CC3CC3)CC[C@@H]2NC(=O)c2cc(-c3ccc(F)cc3F)on2)cn1` [Example 4.043] returned an IC50 of 158 nM.
In turn, `Cc1nc(C(C)(C)NC(=O)[C@H]2CN(CC3CC3)CC[C@@H]2NC(=O)c2cc(-c3ccc(F)cc3F)on2)no1` [Example 4.044] came in with an IC50 of 75 nM.
With `O=C(N[C@H]1CCN(CC2CC2)C[C@@H]1C(=O)NC1(C2CC2)CC1)c1cc(-c2ccc(F)cc2F)on1` [Example 4.045], 164 nM corresponded to half-maximal inhibition (IC50).
Turning to `CC(NC(=O)[C@H]1CN(CC2CC2)CC[C@@H]1NC(=O)c1cc(-c2ccc(F)cc2F)on1)C1CCCO1` (stereo partly shown) [Example 4.046], the IC50 turned out to be 290 nM.
Then `CC(NC(=O)[C@H]1CN(CC2CC2)CC[C@@H]1NC(=O)c1cc(-c2ccc(F)cc2F)on1)c1nc[nH]n1` (stereo partly shown) [Example 4.047], with 318 nM; and `C#CC(C)NC(=O)[C@H]1CN(CC2CC2)CC[C@@H]1NC(=O)c1cc(-c2ccc(F)cc2F)on1` (stereo partly shown) [Example 4.048], with 247 nM.
Take `CC(NC(=O)[C@H]1CN(CC2CC2)CC[C@@H]1NC(=O)c1cc(-c2ccc(F)cc2F)on1)c1ccon1` (stereo partly shown) [Example 4.049]: the IC50 was 148 nM.
As to `N#CCN1CC[C@H](NC(=O)c2cc(-c3ccc(F)cc3F)on2)[C@@H](C(=O)NC2(c3ncccn3)CC2)C1` [Example 4.051], the midpoint of inhibition, the IC50, lay at 356 nM.
Regarding `O=C(N[C@H]1CCN(CC2CC2)C[C@@H]1C(=O)NC1(c2ccccc2)CC1)c1cc(-c2ccc(F)cc2F)on1` [Example 4.053], half-maximal inhibition (IC50) required 1 nM.
Compound `O=C(N[C@H]1CCN(CC2CC2)C[C@@H]1C(=O)NC1(c2ncccc2F)CC1)c1cc(-c2ccc(F)cc2F)on1` [Example 4.054] yielded an IC50 of 1 nM.
As to `O=C(N[C@H]1CCN(CC2CC2)C[C@@H]1C(=O)NC1(c2ccncn2)CC1)c1cc(-c2ccc(F)cc2F)on1` [Example 4.055], the IC50 was 16 nM.
Then `CCOC(=O)C1(NC(=O)[C@H]2CN(CC3CC3)CC[C@@H]2NC(=O)c2cc(-c3ccc(F)cc3F)on2)CC1` [Example 4.056], with 64 nM.
For `O=C(N[C@H]1CCN(CC2CC2)C[C@@H]1C(=O)NC1(c2ccccc2)CCC1)c1cc(-c2ccc(F)cc2F)on1` [Example 4.057], the IC50 was found to be 13 nM.
Under `O=C(N[C@H]1CCN(CC2CC2)C[C@@H]1C(=O)N(CCF)Cc1ccccc1)c1cc(-c2ccc(F)cc2F)on1` [Example 4.058] stands 90 nM; under `COc1cccc(C2(NC(=O)[C@H]3CN(CC4CC4)CC[C@@H]3NC(=O)c3cc(-c4ccc(F)cc4F)on3)CC2)c1` [Example 4.059], 61 nM.
The compound `O=C(N[C@H]1CCN(CC2CC2)C[C@@H]1C(=O)NC1(c2ccccc2F)CC1)c1cc(-c2ccc(F)cc2F)on1` [Example 4.061] returned an IC50 of 1 nM.
Regarding `O=C(N[C@H]1CCN(CC2CC2)C[C@@H]1C(=O)NC1(c2ccc(F)cc2)CC1)c1cc(-c2ccc(F)cc2F)on1` [Example 4.062], the midpoint of inhibition, the IC50, lay at 141 nM.
Regarding `O=C(N[C@H]1CCN(CC2CC2)C[C@@H]1C(=O)NC1(c2cccc(F)c2)CC1)c1cc(-c2ccc(F)cc2F)on1` [Example 4.063], half-maximal inhibition (IC50) was put at 142 nM.
For `Cc1cccc(CNC(=O)[C@H]2CN(CC3CC3)CC[C@@H]2NC(=O)c2cc(-c3ccc(F)cc3F)on2)n1` [Example 4.064], the IC50 was found to be 753 nM.
The compound `O=C(N[C@H]1CCN(CC2CC2)C[C@@H]1C(=O)NCCc1ccccc1Cl)c1cc(-c2ccc(F)cc2F)on1` [Example 4.065] yielded an IC50 of 14 nM.
`CCN(CC)C(=O)[C@H]1CN(CC2CC2)CC[C@@H]1NC(=O)c1cc(-c2ccc(F)cc2F)on1` [Example 4.066] displayed a 50% inhibitory concentration (IC50) of 320 nM.
For `O=C(N[C@H]1CCN(CC2CC2)C[C@@H]1C(=O)N1CC[C@@H]1c1ccccc1)c1cc(-c2ccc(F)cc2F)on1` [Example 4.067a], the IC50 came out at 20 nM.
Compound `O=C(N[C@@H]1CCN(CC2CC2)C[C@H]1C(=O)N1CC[C@@H]1c1ccccc1)c1cc(-c2ccc(F)cc2F)on1` [Example 4.067b] came in with an IC50 of 2 nM.
`O=C(N[C@H]1CCN(CC2CC2)C[C@@H]1C(=O)NC1(c2cccc(Cl)c2)CC1)c1cc(-c2ccc(F)cc2F)on1` [Example 4.068] returned an IC50 of 1 nM.
`CON(C)C(=O)[C@@H]1CN(CC2CC2)CC[C@H]1NC(=O)c1cc(-c2ccc(F)cc2F)on1` [Example 4.069] displayed an IC50 of 153 nM.
In turn, `CCN(CC)C(=O)[C@@H]1CN(CC2CC2)CC[C@H]1NC(=O)c1cc(-c2ccc(F)cc2F)on1` [Example 4.071] yielded an IC50 of 212 nM.
`COc1ccccc1C(C)NC(=O)[C@H]1CN(CC2CC2)CC[C@@H]1NC(=O)c1cc(-c2ccc(F)cc2F)on1` (stereo partly shown) [Example 4.072] registered an IC50 of 16 nM.
Take `CCOC(=O)[C@H](NC(=O)[C@H]1CN(CC2CC2)CCC1NC(=O)c1cc(-c2ccc(F)cc2F)on1)c1ccccc1` (stereo partly shown) [Example 4.073]: it took 173 nM to reach half-maximal inhibition (IC50).
In turn, `COc1ccccc1C1(NC(=O)[C@H]2CN(CC3CC3)CC[C@@H]2NC(=O)c2cc(-c3ccc(F)cc3F)on2)CC1` [Example 4.074] gave an IC50 of 27 nM.
The compound `C[C@@H](NC(=O)[C@H]1CN(CC2CC2)CC[C@@H]1NC(=O)c1cc(-c2ccc(F)cc2F)on1)c1cccc(Br)c1` [Example 4.075] had an IC50 of 2 nM.
Under `O=C(N[C@H]1CCN(CC2CC2)C[C@@H]1C(=O)NC1(c2ccccc2O)CC1)c1cc(-c2ccc(F)cc2F)on1` [Example 4.076] stands 97 nM; under `O=C(N[C@H]1CCN(CC2CC2)C[C@@H]1C(=O)NC1(c2nccc[n+]2[O-])CC1)c1cc(-c2ccc(F)cc2F)on1` [Example 4.077], 4 nM; under `O=C(NC1CCN(CC2CC2)CC1C(=O)N1CCCC1c1ncccn1)c1cc(-c2ccc(F)cc2F)on1` (stereo not shown) [Example 4.078], 64 nM.
Under `O=C(N[C@H]1CCN(CC2CC2)C[C@@H]1C(=O)N1CCCC1c1ncccn1)c1cc(-c2ccc(F)cc2F)on1` (stereo partly shown) [Example 4.078b] stands 15 nM.
